Assay results: PubChem BioAssay AID248 (DTP/NCI, 2004)
Several values for one entry are separate records, joined by “and”; a condition that tells them apart may be missing. Equal values may be shown once. Inconclusive results and toxic doses are left out. Cut-off read from the data, not from the text of the source: active = T/C of 150% or more; inactive = T/C below 125%.

Tested on: L1210 leukemia ip in BDF1 mice, survival T/C
Assay: NCI In Vivo Anticancer Drug Screen. Data for tumor model L1210 Leukemia (intraperitoneal) in B6D2F1 (BDF1) mice
Conditions: endpoint: mean survival time, higher = longer survival
Summary of the method: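 Mice bearing the transplanted tumor received compound or vehicle. Survival of the treated group was divided by that of the vehicle-treated control group to give the ratio.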

[1] = dose: 12.5 mg/kg/injection, schedule: Q01DX009 (ip), vehicle: saline
[2] = dose: 25.0 mg/kg/injection, schedule: Q01DX009 (ip), vehicle: Klucel (hydroxypropylcellulose) (HPC)
[3] = dose: 25.0 mg/kg/injection, schedule: Q04DX002 (ip), vehicle: Klucel (hydroxypropylcellulose) (HPC)
[4] = dose: 100.0 mg/kg/injection, schedule: Q01DX009 (ip), vehicle: Klucel (hydroxypropylcellulose) (HPC)
[5] = dose: 100.0 mg/kg/injection, schedule: Q04DX002 (ip), vehicle: Klucel (hydroxypropylcellulose) (HPC)
[6] = dose: 100.0 mg/kg/injection, schedule: Q01DX001 (ip), vehicle: saline
[7] = dose: 200.0 mg/kg/injection, schedule: Q01DX001 (ip), vehicle: saline
[8] = dose: 400.0 mg/kg/injection, schedule: Q01DX001 (ip), vehicle: saline
[9] = dose: 200.0 mg/kg/injection, schedule: Q01DX009 (ip), vehicle: Klucel (hydroxypropylcellulose) (HPC)
[10] = dose: 100.0 mg/kg/injection, schedule: Q04DX002 (ip), vehicle: saline with Tween-80
[11] = dose: 200.0 mg/kg/injection, schedule: Q04DX002 (ip), vehicle: saline with Tween-80
[12] = dose: 400.0 mg/kg/injection, schedule: Q04DX002 (ip), vehicle: saline with Tween-80
[13] = dose: 100.0 mg/kg/injection, schedule: Q01DX009 (ip), vehicle: saline with Tween-80
[14] = dose: 100.0 mg/kg/injection, schedule: Q04DX003 (ip), vehicle: saline with Tween-80
[15] = dose: 200.0 mg/kg/injection, schedule: Q01DX009 (ip), vehicle: saline with Tween-80
[16] = dose: 200.0 mg/kg/injection, schedule: Q04DX003 (ip), vehicle: saline with Tween-80
[17] = dose: 400.0 mg/kg/injection, schedule: Q04DX003 (ip), vehicle: saline with Tween-80
[18] = dose: 100.0 mg/kg/injection, schedule: Q01DX001 (ip), vehicle: Klucel (hydroxypropylcellulose) (HPC)
[19] = dose: 100.0 mg/kg/injection, schedule: Q04DX003 (ip), vehicle: Klucel (hydroxypropylcellulose) (HPC)
[20] = dose: 200.0 mg/kg/injection, schedule: Q01DX001 (ip), vehicle: Klucel (hydroxypropylcellulose) (HPC)
[21] = dose: 200.0 mg/kg/injection, schedule: Q04DX003 (ip), vehicle: Klucel (hydroxypropylcellulose) (HPC)
[22] = dose: 400.0 mg/kg/injection, schedule: Q04DX003 (ip), vehicle: Klucel (hydroxypropylcellulose) (HPC)

Measured: T/C

CC1(C)C(=O)N(Cl)C(=O)N1Cl
inactive: dose: 3.12 mg/kg/injection, schedule: Q01DX009 (ip), vehicle: Klucel (hydroxypropylcellulose) (HPC) 90 % of control | dose: 3.13 mg/kg/injection, schedule: Q01DX001 (ip), vehicle: saline sonified 90 % of control | dose: 3.13 mg/kg/injection, schedule: Q01DX009 (ip), vehicle: saline 99 % of control | dose: 6.25 mg/kg/injection, schedule: Q01DX001 (ip), vehicle: saline sonified 97 % of control | dose: 6.25 mg/kg/injection, schedule: Q01DX009 (ip), vehicle: Klucel (hydroxypropylcellulose) (HPC) 90 % of control | dose: 6.25 mg/kg/injection, schedule: Q01DX009 (ip), vehicle: saline 95 % of control | dose: 12.5 mg/kg/injection, schedule: Q01DX001 (ip), vehicle: saline sonified 95 % of control | [1] 99 % of control | dose: 12.5 mg/kg/injection, schedule: Q04DX002 (ip), vehicle: Klucel (hydroxypropylcellulose) (HPC) 97 % of control | [2] 91 % of control | [3] 94 % of control

CC(C)CCCC(C)C1CCC2C3CCC4CC(=O)CCC4(C)C3CCC12C (stereo not given)
inactive: dose: 12.5 mg/kg/injection, schedule: Q01DX009 (ip), vehicle: Klucel (hydroxypropylcellulose) (HPC) 104 % of control | [2] 107 % of control and 90 % of control | [4] 90 % of control | [5] 87 % of control | dose: 200.0 mg/kg/injection, schedule: Q04DX002 (ip), vehicle: Klucel (hydroxypropylcellulose) (HPC) 93 % of control | dose: 400.0 mg/kg/injection, schedule: Q04DX002 (ip), vehicle: Klucel (hydroxypropylcellulose) (HPC) 107 % of control

[BH3-][NH2+]c1cccc([NH2+][BH3-])c1
inactive: [6] 100 % of control | [7] 96 % of control | [8] 94 % of control

Cc1cccc(C)c1NC(=O)Nc1ccc(CCO)cc1
inactive: [4] 97 % of control | [9] 98 % of control

CC1=C2CCC(C)C23C2C(=O)OC(=O)C2C1C1C(=O)OC(=O)C13 (stereo not given)
inactive: [1] 107 % of control | dose: 25.0 mg/kg/injection, schedule: Q01DX009 (ip), vehicle: saline 102 % of control | dose: 50.0 mg/kg/injection, schedule: Q01DX009 (ip), vehicle: saline 103 % of control

CCCC/C=C/CCCC
inactive: dose: 75.0 mg/kg/injection, schedule: Q01DX009 (ip), vehicle: saline 100 % of control | dose: 300.0 mg/kg/injection, schedule: Q01DX009 (ip), vehicle: saline 86 % of control

CCCCCCCN(CCCCCCC)C(=O)N(CC)CC
inactive: [10] 93 % of control | [11] 93 % of control | [12] 97 % of control

COc1cc([N+](=O)[O-])ccc1NC(=O)N(C)Cc1ccccc1
inactive: dose: 50.0 mg/kg/injection, schedule: Q01DX001 (ip), vehicle: saline with Tween-80 95 % of control | dose: 100.0 mg/kg/injection, schedule: Q01DX001 (ip), vehicle: saline with Tween-80 93 % of control | [13] 96 % of control | [10] 92 % of control and 93 % of control | [14] 116 % of control | [15] 98 % of control | [11] 94 % of control and 102 % of control | [16] 98 % of control | dose: 400.0 mg/kg/injection, schedule: Q01DX001 (ip), vehicle: saline with Tween-80 87 % of control and 88 % of control | dose: 400.0 mg/kg/injection, schedule: Q01DX009 (ip), vehicle: saline with Tween-80 94 % of control | [12] 93 % of control and 101 % of control | [17] 101 % of control

Cc1cc(=O)oc2cc(OS(C)(=O)=O)ccc12
inactive: dose: 100.0 mg/kg/injection, schedule: Q01DX001 (ip), vehicle: carboxymethylcellulose (CMC) 113 % of control | dose: 200.0 mg/kg/injection, schedule: Q01DX001 (ip), vehicle: carboxymethylcellulose (CMC) 107 % of control | dose: 400.0 mg/kg/injection, schedule: Q01DX001 (ip), vehicle: carboxymethylcellulose (CMC) 98 % of control

CC(C)Nc1ccc(C(=O)O)cc1
inactive: [18] 100 % of control | [19] 98 % of control | [20] 91 % of control | [21] 100 % of control | dose: 400.0 mg/kg/injection, schedule: Q01DX001 (ip), vehicle: Klucel (hydroxypropylcellulose) (HPC) 102 % of control | [22] 100 % of control

COc1ccc(/C=C(/C)[N+](=O)[O-])cc1OC
inactive: dose: 50.0 mg/kg/injection, schedule: Q01DX001 (ip), vehicle: Klucel (hydroxypropylcellulose) (HPC) 98 % of control | dose: 50.0 mg/kg/injection, schedule: Q01DX009 (ip), vehicle: saline with Tween-80 91 % of control | [18] 94 % of control | [6] 93 % of control | [13] 115 % of control | [19] 97 % of control | [20] 103 % of control | [15] 100 % of control | [21] 102 % of control | [8] 98 % of control | [22] 97 % of control

CC(C)CC(=O)/C(CC(C)C)=N/O
inactive: dose: 50.0 mg/kg/injection, schedule: Q01DX001 (ip), vehicle: saline 96 % of control | [6] 104 % of control | [7] 96 % of control | [8] 96 % of control

C[n+]1cccc2cc(C(=O)O)ccc21
inactive: dose: 50.0 mg/kg/injection, schedule: Q01DX009 (ip), vehicle: acetone 101 % of control | dose: 100.0 mg/kg/injection, schedule: Q01DX009 (ip), vehicle: acetone 97 % of control | dose: 200.0 mg/kg/injection, schedule: Q01DX009 (ip), vehicle: acetone 93 % of control

NC(=O)C(NC(=O)c1ccccc1)SCc1ccccc1 (stereo not given)
inactive: [3] 98 % of control | dose: 50.0 mg/kg/injection, schedule: Q04DX002 (ip), vehicle: Klucel (hydroxypropylcellulose) (HPC) 95 % of control | [5] 95 % of control

CC1(C)c2ccccc2N(CCCN2CCCCC2)c2ccccc21
inactive: dose: 9.0 mg/kg/injection, schedule: Q01DX001 (ip), vehicle: water 101 % of control | dose: 18.0 mg/kg/injection, schedule: Q01DX001 (ip), vehicle: water 93 % of control | dose: 36.0 mg/kg/injection, schedule: Q01DX001 (ip), vehicle: water 101 % of control | dose: 50.0 mg/kg/injection, schedule: Q01DX001 (ip), vehicle: water 91 % of control | dose: 100.0 mg/kg/injection, schedule: Q01DX001 (ip), vehicle: water 91 % of control | dose: 200.0 mg/kg/injection, schedule: Q01DX001 (ip), vehicle: water 100 % of control

CN(C)c1ccc(/C=N/NC(=O)C(O)C(O)C(O)C(O)CO)cc1 (stereo not given)
inactive: [4] 97 % of control | [9] 96 % of control | dose: 400.0 mg/kg/injection, schedule: Q01DX009 (ip), vehicle: Klucel (hydroxypropylcellulose) (HPC) 102 % of control

CCOC(=O)/C(C#N)=C/c1cc2c3c(c1)CCCN3CCC2
inactive: dose: 50.0 mg/kg/injection, schedule: Q04DX003 (ip), vehicle: saline with Tween-80 111 % of control | [14] 93 % of control | [16] 93 % of control | [17] 92 % of control
